# Source: PMC5762315, “Inhibition of polo-like kinase 4 (PLK4): a new therapeutic option for rhabdoid tumors and pediatric medulloblastoma” (Oncotarget, 2017)
# “And” between values parts separate entries of the source, which are not always exact repeats. Equal entries are not always repeated.
# Experiments:
# Assay in all cases: biochemical
# Format in all cases: biochemical
# [1] = target: various kinases (Homo sapiens, UniProt O75116); conditions: kinase ROCK2; ZLYTE
# [2] = target: various kinases (Homo sapiens, UniProt O75914); conditions: PAK3
# [3] = target: various kinases (Homo sapiens, UniProt P04626); conditions: ERBB2 (HER2)
# [4] = target: various kinases (Homo sapiens, UniProt P07332); conditions: FES (FPS)
# [5] = target: various kinases (Homo sapiens, UniProt P07949, V804E); conditions: kinase RET V804E; ZLYTE
# [6] = target: various kinases (Homo sapiens, UniProt P17252); conditions: kinase PRKCA (PKC alpha); ZLYTE
# [7] = target: various kinases (Homo sapiens, UniProt P22607, V555M); conditions: FGFR3 V555M
# [8] = target: various kinases (Homo sapiens, UniProt P29376); conditions: LTK (TYK1)
# [9] = target: various kinases (Homo sapiens, UniProt P48729); conditions: CSNK1A1 (CK1 alpha 1)
# [10] = target: various kinases (Homo sapiens, UniProt P49841); conditions: GSK3B (GSK3 beta)
# [11] = target: various kinases (Homo sapiens, UniProt Q04759); conditions: kinase PRKCQ (PKC theta); ZLYTE
# Sequence of various kinases (Homo sapiens, UniProt Q04759) (Q04759 whole entry): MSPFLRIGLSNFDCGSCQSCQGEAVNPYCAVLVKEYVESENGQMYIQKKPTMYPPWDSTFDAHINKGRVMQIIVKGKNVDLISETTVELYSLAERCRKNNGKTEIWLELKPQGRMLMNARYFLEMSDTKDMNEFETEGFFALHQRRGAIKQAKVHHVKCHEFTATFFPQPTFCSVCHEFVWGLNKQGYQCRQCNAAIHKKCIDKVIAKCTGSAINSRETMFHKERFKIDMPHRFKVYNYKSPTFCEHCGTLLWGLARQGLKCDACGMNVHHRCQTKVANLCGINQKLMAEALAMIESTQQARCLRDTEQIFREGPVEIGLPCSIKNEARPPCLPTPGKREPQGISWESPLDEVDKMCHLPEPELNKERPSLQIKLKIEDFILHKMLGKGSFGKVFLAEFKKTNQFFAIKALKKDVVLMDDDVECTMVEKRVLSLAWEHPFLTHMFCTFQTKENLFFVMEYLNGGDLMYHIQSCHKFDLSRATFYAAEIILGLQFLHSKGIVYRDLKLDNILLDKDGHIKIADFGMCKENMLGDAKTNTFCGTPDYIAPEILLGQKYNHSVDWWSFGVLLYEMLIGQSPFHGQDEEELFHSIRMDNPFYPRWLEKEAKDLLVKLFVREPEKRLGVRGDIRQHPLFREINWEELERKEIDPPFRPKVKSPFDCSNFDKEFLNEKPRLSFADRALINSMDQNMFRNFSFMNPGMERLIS
# [12] = target: various kinases (Homo sapiens, UniProt Q15349); conditions: kinase RPS6KA2 (RSK3); ZLYTE
# Sequence of various kinases (Homo sapiens, UniProt Q15349) (Q15349 whole entry): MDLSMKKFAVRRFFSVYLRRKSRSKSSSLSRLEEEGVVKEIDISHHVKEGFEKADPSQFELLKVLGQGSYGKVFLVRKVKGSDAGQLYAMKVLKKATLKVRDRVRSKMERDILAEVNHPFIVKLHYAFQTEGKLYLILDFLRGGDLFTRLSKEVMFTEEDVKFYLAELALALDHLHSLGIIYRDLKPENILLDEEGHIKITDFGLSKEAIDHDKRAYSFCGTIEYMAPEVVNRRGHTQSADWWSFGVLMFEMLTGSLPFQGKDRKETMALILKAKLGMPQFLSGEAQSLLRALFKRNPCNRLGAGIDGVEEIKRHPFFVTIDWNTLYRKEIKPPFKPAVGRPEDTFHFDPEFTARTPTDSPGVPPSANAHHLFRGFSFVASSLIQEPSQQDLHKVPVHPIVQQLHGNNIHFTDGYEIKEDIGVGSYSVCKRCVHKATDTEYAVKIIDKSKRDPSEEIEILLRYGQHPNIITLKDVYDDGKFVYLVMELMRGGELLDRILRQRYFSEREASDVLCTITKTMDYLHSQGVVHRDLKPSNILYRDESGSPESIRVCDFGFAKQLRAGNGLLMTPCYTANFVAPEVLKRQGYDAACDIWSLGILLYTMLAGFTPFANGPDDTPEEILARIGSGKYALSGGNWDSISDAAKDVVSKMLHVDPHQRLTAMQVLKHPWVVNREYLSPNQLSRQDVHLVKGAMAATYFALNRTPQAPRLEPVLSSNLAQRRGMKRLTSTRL
# [13] = target: various kinases (Homo sapiens, UniProt Q16512); conditions: kinase PKN1 (PRK1); ZLYTE
# Sequence of various kinases (Homo sapiens, UniProt Q16512) (Q16512 whole entry): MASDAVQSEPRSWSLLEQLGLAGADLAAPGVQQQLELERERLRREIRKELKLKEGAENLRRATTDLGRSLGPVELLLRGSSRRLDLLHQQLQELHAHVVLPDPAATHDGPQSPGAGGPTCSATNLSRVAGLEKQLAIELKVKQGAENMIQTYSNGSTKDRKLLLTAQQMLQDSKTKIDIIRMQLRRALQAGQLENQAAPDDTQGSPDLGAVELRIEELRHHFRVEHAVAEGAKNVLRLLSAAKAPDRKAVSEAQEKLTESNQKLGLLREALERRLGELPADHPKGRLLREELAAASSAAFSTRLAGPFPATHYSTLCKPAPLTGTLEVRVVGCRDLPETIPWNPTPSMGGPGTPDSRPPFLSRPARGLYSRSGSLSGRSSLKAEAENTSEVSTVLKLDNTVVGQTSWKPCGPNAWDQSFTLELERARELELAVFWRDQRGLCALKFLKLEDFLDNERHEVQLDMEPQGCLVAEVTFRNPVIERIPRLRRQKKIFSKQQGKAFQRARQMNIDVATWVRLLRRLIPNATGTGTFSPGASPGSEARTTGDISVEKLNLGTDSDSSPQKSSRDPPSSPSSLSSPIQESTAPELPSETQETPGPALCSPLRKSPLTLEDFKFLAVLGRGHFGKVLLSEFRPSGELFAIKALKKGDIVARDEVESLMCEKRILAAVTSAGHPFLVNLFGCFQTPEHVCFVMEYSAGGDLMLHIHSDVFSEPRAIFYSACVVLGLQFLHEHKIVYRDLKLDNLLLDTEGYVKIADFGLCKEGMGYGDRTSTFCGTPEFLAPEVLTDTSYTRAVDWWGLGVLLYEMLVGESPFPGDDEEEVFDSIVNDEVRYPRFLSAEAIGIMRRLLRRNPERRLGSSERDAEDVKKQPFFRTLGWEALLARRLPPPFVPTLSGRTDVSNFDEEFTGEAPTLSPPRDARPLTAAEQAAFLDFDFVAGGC
# [14] = target: various kinases (Homo sapiens, UniProt Q16644); conditions: MAPKAPK3
# [15] = target: various kinases (Homo sapiens, UniProt Q8IU85); conditions: CAMK1D (CaMKI delta)
# [16] = target: T1, various kinases (Homo sapiens, UniProt Q96BR1); conditions: kinase SGKL (SGK3); ZLYTE
# T1 sequence (Q96BR1 1-496): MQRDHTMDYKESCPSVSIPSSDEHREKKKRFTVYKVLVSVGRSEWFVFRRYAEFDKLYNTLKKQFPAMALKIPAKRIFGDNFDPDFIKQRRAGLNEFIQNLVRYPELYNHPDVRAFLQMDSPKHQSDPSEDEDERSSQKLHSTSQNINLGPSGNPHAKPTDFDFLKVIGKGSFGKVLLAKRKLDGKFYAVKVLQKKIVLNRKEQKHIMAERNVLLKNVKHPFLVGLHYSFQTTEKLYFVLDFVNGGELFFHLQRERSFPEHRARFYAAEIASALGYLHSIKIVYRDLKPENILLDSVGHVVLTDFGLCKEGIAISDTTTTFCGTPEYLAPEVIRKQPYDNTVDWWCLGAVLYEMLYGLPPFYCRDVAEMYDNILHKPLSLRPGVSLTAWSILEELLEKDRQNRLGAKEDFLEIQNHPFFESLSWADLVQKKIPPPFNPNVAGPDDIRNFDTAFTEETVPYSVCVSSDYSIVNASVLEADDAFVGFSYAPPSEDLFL
# [17] = target: T2, various kinases (Homo sapiens, UniProt Q96PF2); conditions: kinase STK22B (TSSK2); ZLYTE
# T2 sequence (Q96PF2 1-358): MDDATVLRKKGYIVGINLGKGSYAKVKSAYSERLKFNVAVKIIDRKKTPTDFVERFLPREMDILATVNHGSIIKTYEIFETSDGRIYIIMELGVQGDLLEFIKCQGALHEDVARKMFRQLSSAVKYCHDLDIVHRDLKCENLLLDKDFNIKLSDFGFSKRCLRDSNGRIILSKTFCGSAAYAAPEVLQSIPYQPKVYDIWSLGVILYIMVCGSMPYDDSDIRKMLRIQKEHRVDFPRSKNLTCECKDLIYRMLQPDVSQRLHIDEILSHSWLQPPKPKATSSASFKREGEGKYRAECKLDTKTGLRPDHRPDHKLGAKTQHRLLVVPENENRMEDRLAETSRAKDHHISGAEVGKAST
# [18] = target: various kinases (Homo sapiens, UniProt Q9H4B4); conditions: kinase PLK3; ZLYTE
# Sequence of various kinases (Homo sapiens, UniProt Q9H4B4) (Q9H4B4 whole entry): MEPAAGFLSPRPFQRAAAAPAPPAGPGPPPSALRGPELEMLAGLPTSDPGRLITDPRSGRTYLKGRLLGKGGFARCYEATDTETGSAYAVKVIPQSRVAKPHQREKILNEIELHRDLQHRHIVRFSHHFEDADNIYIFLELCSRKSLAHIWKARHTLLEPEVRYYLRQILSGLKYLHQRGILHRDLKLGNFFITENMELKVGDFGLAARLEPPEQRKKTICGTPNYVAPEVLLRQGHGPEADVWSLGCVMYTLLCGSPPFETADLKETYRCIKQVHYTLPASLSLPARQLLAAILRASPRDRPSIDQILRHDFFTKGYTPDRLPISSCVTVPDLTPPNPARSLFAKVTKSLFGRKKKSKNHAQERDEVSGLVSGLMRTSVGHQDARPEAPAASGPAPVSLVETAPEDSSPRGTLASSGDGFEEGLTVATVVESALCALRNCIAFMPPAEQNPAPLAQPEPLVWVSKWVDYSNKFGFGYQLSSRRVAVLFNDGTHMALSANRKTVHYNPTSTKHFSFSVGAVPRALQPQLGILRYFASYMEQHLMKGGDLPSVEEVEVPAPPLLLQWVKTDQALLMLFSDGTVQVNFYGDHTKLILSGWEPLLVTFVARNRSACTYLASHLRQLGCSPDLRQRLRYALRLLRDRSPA
# [19] = target: various kinases (Homo sapiens, UniProt Q9H792); conditions: PEAK1
# [20] = target: T3, various kinases (Homo sapiens, UniProt Q9HBY8); conditions: kinase SGK2; ZLYTE
# T3 sequence (Q9HBY8 1-367): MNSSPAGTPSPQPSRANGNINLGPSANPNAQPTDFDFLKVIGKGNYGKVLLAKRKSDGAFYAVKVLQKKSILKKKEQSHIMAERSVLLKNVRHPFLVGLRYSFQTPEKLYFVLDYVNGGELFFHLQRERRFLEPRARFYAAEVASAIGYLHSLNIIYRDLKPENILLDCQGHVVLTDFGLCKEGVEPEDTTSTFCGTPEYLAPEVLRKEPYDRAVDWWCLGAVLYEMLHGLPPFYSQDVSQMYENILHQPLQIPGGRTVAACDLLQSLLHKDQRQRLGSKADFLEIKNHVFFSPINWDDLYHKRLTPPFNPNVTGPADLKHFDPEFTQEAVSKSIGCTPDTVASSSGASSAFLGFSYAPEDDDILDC
# [21] = target: various kinases (Homo sapiens, UniProt Q9Y243); conditions: AKT3 (PKB gamma)
# Sequence of various kinases (Homo sapiens, UniProt O75116) (O75116 whole entry): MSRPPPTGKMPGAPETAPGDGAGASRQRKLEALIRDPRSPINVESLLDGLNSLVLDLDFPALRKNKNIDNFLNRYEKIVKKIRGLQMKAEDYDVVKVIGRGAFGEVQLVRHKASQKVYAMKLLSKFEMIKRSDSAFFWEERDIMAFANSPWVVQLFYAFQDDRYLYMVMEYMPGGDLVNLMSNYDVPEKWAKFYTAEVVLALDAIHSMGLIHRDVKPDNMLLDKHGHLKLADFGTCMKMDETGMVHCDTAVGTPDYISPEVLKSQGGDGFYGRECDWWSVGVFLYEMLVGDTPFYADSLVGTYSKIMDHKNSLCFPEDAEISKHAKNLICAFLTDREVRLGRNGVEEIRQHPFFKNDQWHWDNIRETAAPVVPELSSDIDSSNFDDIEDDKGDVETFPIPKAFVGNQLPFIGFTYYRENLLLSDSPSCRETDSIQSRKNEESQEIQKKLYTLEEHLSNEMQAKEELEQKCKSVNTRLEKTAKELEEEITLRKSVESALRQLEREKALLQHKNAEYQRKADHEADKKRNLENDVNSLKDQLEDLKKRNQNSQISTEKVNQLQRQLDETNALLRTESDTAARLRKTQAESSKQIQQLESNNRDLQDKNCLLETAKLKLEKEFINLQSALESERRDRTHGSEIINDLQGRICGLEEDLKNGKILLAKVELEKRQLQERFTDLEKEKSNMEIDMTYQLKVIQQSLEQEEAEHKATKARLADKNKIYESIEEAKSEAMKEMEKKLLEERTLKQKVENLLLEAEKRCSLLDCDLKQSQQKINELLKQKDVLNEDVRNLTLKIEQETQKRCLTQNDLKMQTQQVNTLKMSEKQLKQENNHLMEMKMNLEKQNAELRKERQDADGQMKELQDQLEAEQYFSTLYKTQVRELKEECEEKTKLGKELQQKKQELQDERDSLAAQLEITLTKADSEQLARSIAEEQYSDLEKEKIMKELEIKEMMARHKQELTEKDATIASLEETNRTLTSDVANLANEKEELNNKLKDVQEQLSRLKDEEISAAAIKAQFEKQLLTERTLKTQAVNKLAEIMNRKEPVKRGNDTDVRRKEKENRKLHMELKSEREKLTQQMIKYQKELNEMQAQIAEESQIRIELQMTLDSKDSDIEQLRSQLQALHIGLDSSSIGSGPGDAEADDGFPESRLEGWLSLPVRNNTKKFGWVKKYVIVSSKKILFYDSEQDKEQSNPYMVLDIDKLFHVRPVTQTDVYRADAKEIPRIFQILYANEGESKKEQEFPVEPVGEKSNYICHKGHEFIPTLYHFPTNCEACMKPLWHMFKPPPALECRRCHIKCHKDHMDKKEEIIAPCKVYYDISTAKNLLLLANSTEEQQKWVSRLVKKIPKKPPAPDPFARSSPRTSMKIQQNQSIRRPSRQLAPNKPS
structure (smiles),measurement,setting,value
COc1ccc2c(c1)[C@]1(C[C@H]1c1ccc3c(/C=C/c4ccc(CN5C[C@@H](C)O[C@@H](C)C5)cc4)n[nH]c3c1)C(=O)N2 [CFI-400945],% Inhibition Average,[1],1%
same,% Inhibition Duplicate #1,[1],1%
same,% Inhibition Duplicate #2,[1],1%
same,% Inhibition,[2],11% and 5%
same,% Inhibition,[3],-2% and 1%
same,% Inhibition,[4],13% and 10%
same,% Inhibition Average,[5],0%
same,% Inhibition Duplicate #1,[5],0%
same,% Inhibition Duplicate #2,[5],0%
same,% Inhibition Average,[6],5%
same,% Inhibition Duplicate #1,[6],-1%
same,% Inhibition Duplicate #2,[6],12%
same,% Inhibition,[7],56%
same,% Inhibition,[8],68%
same,% Inhibition,[9],7%
same,% Inhibition,[10],7% and 6%
same,% Inhibition Average,[11],7%
same,% Inhibition Duplicate #1,[11],1%
same,% Inhibition Duplicate #2,[11],13%
same,% Inhibition Average,[12],12%
same,% Inhibition Duplicate #1,[12],11%
same,% Inhibition Duplicate #2,[12],13%
same,% Inhibition Average,[13],20%
same,% Inhibition Duplicate #1,[13],27%
same,% Inhibition Duplicate #2,[13],13%
same,% Inhibition,[14],2% and -4%
same,% Inhibition,[15],-5% and 0%
same,% Inhibition Average,[16],3%
same,% Inhibition Duplicate #1,[16],4%
same,% Inhibition Duplicate #2,[16],2%
same,% Inhibition Average,[17],3%
same,% Inhibition Duplicate #1,[17],4%
same,% Inhibition Duplicate #2,[17],2%
same,% Inhibition Average,[18],-2%
same,% Inhibition Duplicate #1,[18],-7%
same,% Inhibition Duplicate #2,[18],3%
same,% Inhibition,[19],5% and 11%
same,% Inhibition Average,[20],5%
same,% Inhibition Duplicate #1,[20],4%
same,% Inhibition Duplicate #2,[20],5%
same,% Inhibition,[21],3% and 4%
